From patent publication EP4603105A1, “PHARMACEUTICAL COMPOSITION CONTAINING CYCLIC COMPOUND HAVING SELECTIVE KRAS INHIBITORY EFFECT AGAINST HRAS AND NRAS” (CHUGAI SEIYAKU KABUSHIKI KAISHA, priority 2022, dated 2024)
Where a SMILES comes first, the peptide text is derived from it. Bridges are numbered along the chain shown (N, C = ends). [ ]: non-standard residue; d: D form. The star is where a group is joined. hPhe(3,5-F2-4-CF3) = N[C@@H](CCc1cc(F)c(C(F)(F)F)c(F)c1)C(=O)O; hPhe(3-Cl-4-CF3) = N[C@@H](CCc1ccc(C(F)(F)F)c(Cl)c1)C(=O)O; NPrPhe(4-CF3) = CCCN[C@@H](Cc1ccc(C(F)(F)F)cc1)C(=O)O; NEtPhe(4-CF3) = CCN[C@@H](Cc1ccc(C(F)(F)F)cc1)C(=O)O; Piperazinyl(4-(3-oxetanyl)) = C1OCC1N1CCN(*)CC1; NMePhe(4-Me) = CN[C@@H](Cc1ccc(C)cc1)C(=O)O; NMeGly(cPent) = CN[C@H](C(=O)O)C1CCCC1; Pro(4,4-F2) = O=C(O)[C@@H]1CC(F)(F)CN1; NMeD = CN[C@@H](CC(=O)O)C(=O)O; NMeL = CN[C@@H](CC(C)C)C(=O)O; NMeNva = CCC[C@H](NC)C(=O)O; N(Me)CH2CH2OMe = COCCN(C)*; Iva = CC[C@](C)(N)C(=O)O; Morpholide = C1CN(*)CCO1; NMeA = CN[C@@H](C)C(=O)O; Ac5c = NC1(C(=O)O)CCCC1; Aze = O=C(O)[C@@H]1CCN1; Aib = CC(C)(N)C(=O)O; NEtG = CCNCC(=O)O; Sar = CNCC(=O)O

How the values were obtained:
[1] = system: human lung cancer strain NCI-H441; type: cell-based
Outline: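 Readout: […] after the ATP-based reagent. Compound: serial dilutions in dimethyl sulfoxide.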

HRAS wild-type protein = HRAS wild-type protein (Homo sapiens, UniProt P01112); assay: Binding to HRAS by surface plasmon resonance (SPR), KD and KD ratio to KRAS
Outline: (§1)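 Affinity is measured by surface plasmon resonance at 30°C against captured, GDP-loaded RAS carrying a biotinylated Avi tag. Compounds are titrated by single-cycle kinetics, and KD comes from a 1:1 fit.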

[2] = biological target: GDP-bound NRAS wild-type protein (Homo sapiens, UniProt P01111); assay: Binding to NRAS by surface plasmon resonance (SPR), KD and KD ratio to KRAS
Outline: as §1

[3] = ratio of KD value for HRAS wild-type protein to KD value for KRAS (SPR)
[4] = ratio of KD value for GDP-bound NRAS wild-type protein to KD value for KRAS (SPR)
[5] = ratio of KD for HRAS wild-type protein to KD for KRAS
[6] = ratio of KD for GDP-bound NRAS wild-type protein to KD for KRAS
[7] = ratio of the KD value with respect to HRAS wild-type protein to the KD value with respect to KRAS
[8] = ratio of the KD value with respect to GDP-bound NRAS wild-type protein to the KD value with respect to KRAS

Chain of HRAS wild-type protein (P01112 whole entry): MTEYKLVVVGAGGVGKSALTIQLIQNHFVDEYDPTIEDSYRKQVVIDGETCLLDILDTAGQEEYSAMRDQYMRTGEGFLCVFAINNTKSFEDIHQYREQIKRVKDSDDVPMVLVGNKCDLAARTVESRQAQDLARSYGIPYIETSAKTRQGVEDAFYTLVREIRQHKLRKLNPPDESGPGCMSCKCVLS
Chain of GDP-bound NRAS wild-type protein (P01111 whole entry): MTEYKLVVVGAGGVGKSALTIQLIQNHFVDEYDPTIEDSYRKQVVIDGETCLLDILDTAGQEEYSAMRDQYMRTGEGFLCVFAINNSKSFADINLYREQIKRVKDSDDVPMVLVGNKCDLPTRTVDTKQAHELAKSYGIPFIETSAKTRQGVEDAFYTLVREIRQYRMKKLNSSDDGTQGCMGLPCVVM

Compound | IC50 [1] | HRAS /KRAS (HRAS wild-type protein; [3]) | NRAS /KRAS [2, 4] | HRAS /KRAS (HRAS wild-type protein; [5]) | NRAS /KRAS [2, 6] | HRAS /KRAS (HRAS wild-type protein; [7]) | NRAS /KRAS [2, 8]
CCCN(C)C(=O)[C@@H]1CC(=O)N(C)[C@@H](COCC)C(=O)N[C@@H]([C@@H](C)CC)C(=O)N(C)CC(=O)N(C)[C@H]2C/C=C\CCN(C2=O)[C@@H](Cc2ccc(C(F)(F)F)cc2)C(=O)N(C)CC(=O)N[C@@H](CCc2cc(F)c(C(F)(F)F)c(F)c2)C(=O)N2C[C@H](OCC)C[C@H]2C(=O)NC2(CC(C)(C)C2)C(=O)N(C)[C@@H](C2CCCC2)C(=O)N1C [PP2031] | 5.5 nM |  |  |  |  | B (a compound having 3 or more and less than 10 is denoted as B) | B (a compound having 3 or more and less than 10 is denoted as B)
CCCN1C(=O)[C@@H]2CCN2C(=O)CN(C)C(=O)[C@H]([C@@H](C)CC)NC(=O)[C@H](CC(C)C)N(C)C(=O)C[C@@H](C(=O)N2CCOCC2)N(C)C(=O)[C@H](C2CCCC2)N(C)C(=O)[C@](C)(CC)NC(=O)[C@@H]2CCCN2C(=O)[C@H](CCc2cc(F)c(C(F)(F)F)c(F)c2)NC(=O)CN(C)C(=O)[C@@H]1Cc1ccc(C(F)(F)F)cc1 [PP0790] ([NMeL]I[Sar][Aze][NPrPhe(4-CF3)][Sar][hPhe(3,5-F2-4-CF3)]P[Iva][NMeGly(cPent)][NMeD]-Morpholide; lactam N-11) | 28.8 nM |  |  | B (a compound having 3 or more and less than 10 is denoted as B) | C (A compound having a KD ratio of 0.1 or more and less than 3 is denoted as C) |  | 
CC[C@H](C)[C@@H]1NC(=O)[C@H](CC(C)C)N(C)C(=O)C[C@@H](C(=O)N2CCOCC2)N(C)C(=O)[C@H](C2CCCC2)N(C)C(=O)C2(CCCC2)NC(=O)[C@@H]2CCCN2C(=O)[C@H](CCc2ccc(C(F)(F)F)c(Cl)c2)NC(=O)CN(CC)C(=O)[C@H](Cc2ccc(C)cc2)N(C)C(=O)CN(CC)C(=O)CN(C)C1=O [PP0029] ([NMeL]I[Sar][NEtG][NMePhe(4-Me)][NEtG][hPhe(3-Cl-4-CF3)]P[Ac5c][NMeGly(cPent)][NMeD]-Morpholide; lactam N-11) | 26.4 nM |  |  | C (A compound having a KD ratio of 0.1 or more and less than 3 is denoted as C) | C (A compound having a KD ratio of 0.1 or more and less than 3 is denoted as C) |  | 
CCCN1C(=O)CN(C)C(=O)CN(C)C(=O)[C@H]([C@@H](C)CC)NC(=O)[C@H](CC(C)C)N(C)C(=O)C[C@@H](C(=O)N2CCN(C3COC3)CC2)N(C)C(=O)[C@H](C2CCCC2)N(C)C(=O)C2(CCCC2)NC(=O)[C@@H]2CCCN2C(=O)[C@H](CCc2ccc(C(F)(F)F)c(Cl)c2)NC(=O)CN(C)C(=O)[C@@H]1Cc1ccc(C(F)(F)F)cc1 [PP0175] ([NMeL]I[Sar][Sar][NPrPhe(4-CF3)][Sar][hPhe(3-Cl-4-CF3)]P[Ac5c][NMeGly(cPent)][NMeD]-{Piperazinyl(4-(3-oxetanyl))}; lactam N-11) | 6.6 nM |  |  | B (a compound having 3 or more and less than 10 is denoted as B) | B (a compound having 3 or more and less than 10 is denoted as B) |  | 
CCCN1C(=O)CN(C)C(=O)CN(C)C(=O)[C@H]([C@@H](C)CC)NC(=O)[C@H](CC(C)C)N(C)C(=O)C[C@@H](C(=O)N(C)CCOC)N(C)C(=O)[C@H](C2CCCC2)N(C)C(=O)C2(CCCC2)NC(=O)[C@@H]2CCCN2C(=O)[C@H](CCc2ccc(C(F)(F)F)c(Cl)c2)NC(=O)CN(C)C(=O)[C@@H]1Cc1ccc(C(F)(F)F)cc1 [PP0391] ([NMeL]I[Sar][Sar][NPrPhe(4-CF3)][Sar][hPhe(3-Cl-4-CF3)]P[Ac5c][NMeGly(cPent)][NMeD]-{N(Me)CH2CH2OMe}; lactam N-11) | 1.1 nM |  |  |  |  | B (a compound having 3 or more and less than 10 is denoted as B) | B (a compound having 3 or more and less than 10 is denoted as B)
CC[C@H](C)[C@@H]1NC(=O)[C@H](CC(C)C)N(C)C(=O)C[C@@H](C(=O)N2CCOCC2)N(C)C(=O)[C@H](C2CCCC2)N(C)C(=O)C2(CCCCC2)NC(=O)[C@@H]2CCCN2C(=O)[C@H](CCc2cc(F)c(C(F)(F)F)c(F)c2)NC(=O)CN(C)C(=O)[C@H](Cc2ccc(C(F)(F)F)cc2)N2CCCCC[C@@H](C2=O)N(C)C(=O)CN(C)C1=O [PP0498] | 147 nM |  |  |  |  | B (a compound having 3 or more and less than 10 is denoted as B) | B (a compound having 3 or more and less than 10 is denoted as B)

Further compounds by falling IC50 [1], results first:

IC50 [1] | Compound | HRAS /KRAS (HRAS wild-type protein; [3]) | NRAS /KRAS [2, 4] | HRAS /KRAS (HRAS wild-type protein; [5]) | NRAS /KRAS [2, 6] | HRAS /KRAS (HRAS wild-type protein; [7]) | NRAS /KRAS [2, 8]
133 nM | CCO[C@@H]1C[C@H]2C(=O)NC3(CC(C)(C)C3)C(=O)N(C)[C@@H](CC3CCC3)C(=O)N(C)[C@H](C(=O)N(C)C)CC(=O)N(C)[C@@H](COC)C(=O)N[C@@H]([C@@H](C)CC)C(=O)N(C3CC3)CC(=O)N(C)[C@H]3C/C=C\CCN(C3=O)[C@@H](Cc3ccc(C(F)(F)F)cc3)C(=O)N(C)CC(=O)N[C@@H](CCc3cc(F)c(C(F)(F)F)c(F)c3)C(=O)N2C1 [PP2769] |  |  | A (a compound having 10 or more and less than 20 is denoted as A) | AA (a compound having 20 or more is denoted as AA) |  | 
24.3 nM | CCO[C@@H]1C[C@H]2C(=O)NC3(CCCC3)C(=O)N(C)[C@@H](C3CCCC3)C(=O)N(C)[C@H](C(=O)N3CCOCC3)CC(=O)N(C)[C@@H](CC)C(=O)N[C@@H]([C@@H](C)CC)C(=O)N(C)CC(=O)N(C)[C@H]3C[C@@H](C)CCN(C3=O)[C@@H](Cc3ccc(C(F)(F)F)cc3)C(=O)N(C)CC(=O)N[C@@H](CCc3cc(F)c(C(F)(F)F)c(F)c3)C(=O)N2C1 [PP1029] |  |  | B (a compound having 3 or more and less than 10 is denoted as B) | C (A compound having a KD ratio of 0.1 or more and less than 3 is denoted as C) |  | 
19.9 nM | CCO[C@@H]1C[C@H]2C(=O)NC3(CC(C)(C)C3)C(=O)N(C)[C@@H](C(CC)CC)C(=O)N(C)[C@H](C(=O)N(C)C)CC(=O)N(C)[C@@H](C(C)C)C(=O)N[C@@H]([C@@H](C)CC)C(=O)N(C)CC(=O)N(C)[C@H]3C/C=C\CCN(C3=O)[C@@H](Cc3ccc(C)cc3)C(=O)N(C)CC(=O)N[C@@H](CCc3ccc(C(F)(F)F)c(OC)c3)C(=O)N2C1 [PP2173] |  |  |  |  | A (a compound having 10 or more and less than 20 is denoted as A) | A (a compound having 10 or more and less than 20 is denoted as A)
9.8 nM | CCC[C@H]1C(=O)N[C@@H]([C@@H](C)CC)C(=O)N(C)CC(=O)N(C)[C@H]2C/C=C\CCN(C2=O)[C@@H](Cc2ccc(C)cc2)C(=O)N(C)CC(=O)N[C@@H](CCc2ccc(Cl)c(C(F)(F)F)c2)C(=O)N2C[C@H](OCC)C[C@H]2C(=O)NC2(CC(C)(C)C2)C(=O)N(C)[C@@H](C2CCCC2)C(=O)N(C)[C@H](C(=O)N(C)C)CC(=O)N1C [PP2786] |  |  | A (a compound having 10 or more and less than 20 is denoted as A) | A (a compound having 10 or more and less than 20 is denoted as A) |  | 
6.7 nM | CCCN(C)C(=O)[C@@H]1CC(=O)N(C)[C@@H](CC)C(=O)N[C@@H]([C@@H](C)CC)C(=O)N(C)CC(=O)N(C)[C@H]2C/C=C\CCN(C2=O)[C@@H](Cc2ccc(C(F)(F)F)cc2)C(=O)N(C)CC(=O)N[C@@H](CCc2cc(F)c(C(F)(F)F)c(F)c2)C(=O)N2C[C@H](OCC)C[C@H]2C(=O)NC2(CC(C)(C)C2)C(=O)N(C)[C@@H](C2CCCC2)C(=O)N1C [PP1670] | A (a compound having 10 or more and less than 20 is denoted as A) | A (a compound having 10 or more and less than 20 is denoted as A) |  |  |  | 
3.4 nM | CCC[C@H]1C(=O)N[C@@H]([C@@H](C)CC)C(=O)N(C)CC(=O)N(C)CC(=O)N(CCC)[C@@H](Cc2ccc(C(F)(F)F)cc2)C(=O)N(C)CC(=O)N[C@@H](CCc2ccc(C(F)(F)F)c(Cl)c2)C(=O)N2CC(F)(F)C[C@H]2C(=O)NC2(CCCC2)C(=O)N(C)[C@@H](C2CCCC2)C(=O)N(C)[C@H](C(=O)N2CCOCC2)CC(=O)N1C [PP0201] ([NMeNva]I[Sar][Sar][NPrPhe(4-CF3)][Sar][hPhe(3-Cl-4-CF3)][Pro(4,4-F2)][Ac5c][NMeGly(cPent)][NMeD]-Morpholide; lactam N-11) |  |  | C (A compound having a KD ratio of 0.1 or more and less than 3 is denoted as C) | B (a compound having 3 or more and less than 10 is denoted as B) |  | 
3 nM | CCO[C@@H]1C[C@H]2C(=O)NC3(CC(C)(C)C3)C(=O)N(C)[C@@H](C3CCCC3)C(=O)N(C)[C@H](C(=O)N(C)C)CC(=O)N(C)[C@H]3CCCC/C=C/c4ccc(cc4)C[C@@H](C(=O)N(C)CC(=O)N[C@@H](CCc4cc(F)c(C(F)(F)F)c(F)c4)C(=O)N2C1)N1CC/C=C\C[C@@H](C1=O)N(C)C(=O)CN(C)C(=O)[C@H]([C@@H](C)CC)NC3=O [PP1831] | A (a compound having 10 or more and less than 20 is denoted as A) | A (a compound having 10 or more and less than 20 is denoted as A) |  |  |  | 
2.9 nM | CC[C@H](C)[C@@H]1NC(=O)[C@H](CC(C)C)N(C)C(=O)C[C@@H](C(=O)N2CCOCC2)N(C)C(=O)[C@H](C2CCCC2)N(C)C(=O)C(C)(C)NC(=O)[C@@H]2CCCN2C(=O)[C@H](CCc2ccc(C(F)(F)F)c(Cl)c2)NC(=O)CN(C)C(=O)[C@H](Cc2ccc(C(F)(F)F)cc2)N(CC)C(=O)[C@@H]2CCN2C(=O)[C@H](C)N(C)C1=O [PP0221] ([NMeL]I[NMeA][Aze][NEtPhe(4-CF3)][Sar][hPhe(3-Cl-4-CF3)]P[Aib][NMeGly(cPent)][NMeD]-Morpholide; lactam N-11) |  |  | C (A compound having a KD ratio of 0.1 or more and less than 3 is denoted as C) | C (A compound having a KD ratio of 0.1 or more and less than 3 is denoted as C) |  | 
